What was measured:
Assay in all cases: In vitro antibacterial evaluation: minimum inhibitory concentration (MIC), broth dilution method
Type in all cases: cell-based
Enterococcus sp. = settings: 18 hours at 35° C.
Summary of the method: (§1)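 NCCLS M7-A2 broth dilution; Muller-Hinton II […]; 5×10^5 CFU/mL; 64-0.06 μg/mL. MIC = lowest concentration with no growth.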

Escherichia coli = settings: 18 hours at 35° C.
Summary of the method: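 First, organisms are seeded at 5×10^5 CFU/mL into Muller-Hinton II […]. Next, antibiotic is applied across 64-0.06 μg/mL by broth dilution (NCCLS M7-A2). Finally, the lowest inhibitory concentration is recorded as MIC.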

Staphylococcus sp. = settings: for MIC Staphylococcus aureus (ATCC 29213): strain ATCC 29213; for MIC Staphylococcus aureus (GC 1131): strain GC 1131; for MIC Staphylococcus aureus (GC 3051): strain GC 3051; for MIC Staphylococcus aureus (GC 3053): strain GC 3053; for MIC Staphylococcus aureus (GC 4541): strain GC 4541; for MIC Staphylococcus aureus (GC 4542): strain GC 4542; for MIC Staphylococcus aureus-SMITH (GC 4543): strain GC 4543; for MIC Staphylococcus aureus (GC 4544): strain GC 4544; for MIC Staphylococcus aureus (GC 4545): strain GC 4545; for MIC Staphylococcus haemolyticus (GC 4546): strain GC 4546; for MIC Coagulase Negative Staphylococcus (GC 4547): strain GC 4547; for MIC Coagulase Negative Staphylococcus (GC 4548): strain GC 4548; for MIC Coagulase Negative Staphylococcus (GC 4549): strain GC 4549; for MIC Coagulase Negative Staphylococcus (GC 4551): strain GC 4551
Summary of the method: as §1

Streptococcus sp. = settings: 18 hours at 35° C.
Summary of the method: as §1

[1] = Enterococcus faecalis (ATCC 29212)
[2] = Enterococcus faecalis (GC 2242)
[3] = Enterococcus faecalis (GC 2691)
[4] = Enterococcus faecalis (GC 3059)
[5] = Enterococcus faecalis (GC 4552)
[6] = Enterococcus faecalis (GC 4553)
[7] = Enterococcus faecalis (GC 4554)
[8] = Enterococcus faecalis (GC 6189)
[9] = broth dilution, inoculum 5×10^5 CFU/mL
[10] = Streptococcus agalactiae (GC 4564)
[11] = Streptococcus pneumoniae (ATCC 6301)
[12] = Streptococcus pneumoniae (GC 1894)
[13] = Streptococcus pneumoniae (GC 4565)
[14] = Streptococcus pyogenes (GC 4563)

CC(c1ccccc1)C1NC(=O)CNC(=O)C(CO)NC(=O)C(C(O)C2CNC(=N)N2C2OC(CO)C(O)C(O)C2O)NC(=O)C(C(O)C2CNC(=N)N2)NC(=O)C(Cc2ccc(OC3OC(CO)C(OC4OC5COC6(OC5C(O)C4O)C(C)CCCC6C)C(O)C3O)cc2)NC1=O (stereo not drawn) [Example 206, Cyclo[glycyl-β-methylphenylalanyl-O-[4-O-[4,6-O-(2,6-dimethylcyclohexylidene)hexopyranosyl]hexopyranosyl]tyrosyl-3-(2-iminoimidazolidin-4-yl)seryl-3-(3-hexopyranosyl-2-iminoimidazolidin-4-yl)serylseryl]]
0.25 mg/L: MIC Streptococcus agalactiae (GC 4564) (Streptococcus sp.; [10]) | MIC Streptococcus agalactiae (GC 4564) (Streptococcus sp.; [9])
<0.12 mg/L: MIC Streptococcus pneumoniae (ATCC 6301) (Streptococcus sp.; [11]) | MIC Streptococcus pneumoniae (GC 1894) (Streptococcus sp.; [12]) | MIC Streptococcus pneumoniae (GC 4565) (Streptococcus sp.; [13]) | MIC Streptococcus pneumoniae (ATCC 6301) (Streptococcus sp.; [9]) | MIC Streptococcus pneumoniae (GC 1894) (Streptococcus sp.; [9]) | MIC Streptococcus pneumoniae (GC 4565) (Streptococcus sp.; [9])
0.5 mg/L: MIC Staphylococcus haemolyticus (GC 4546) (Staphylococcus sp.) | MIC Coagulase Negative Staphylococcus (GC 4548) (Staphylococcus sp.) | MIC Coagulase Negative Staphylococcus (GC 4549) (Staphylococcus sp.)
1 mg/L: MIC Enterococcus faecalis (ATCC 29212) (Enterococcus sp.; [1]) | MIC Enterococcus faecalis (GC 3059) (Enterococcus sp.; [4]) | MIC Enterococcus faecalis (GC 6189) (Enterococcus sp.; [8]) | MIC Enterococcus faecium (GC 4556) (Enterococcus sp.; Enterococcus faecium (GC 4556)) | MIC Enterococcus faecalis (ATCC 29212) (Enterococcus sp.; [9]) | MIC Enterococcus faecalis (GC 3059) (Enterococcus sp.; [9]) | MIC Enterococcus faecalis (GC 6189) (Enterococcus sp.; [9]) | MIC Enterococcus faecium (GC 4556) (Enterococcus sp.; [9]) | MIC Escherichia coli (GC 4560) (Escherichia coli) | MIC Staphylococcus aureus (ATCC 29213) (Staphylococcus sp.) | MIC Staphylococcus aureus (GC 1131) (Staphylococcus sp.) | MIC Staphylococcus aureus (GC 3051) (Staphylococcus sp.) | MIC Staphylococcus aureus (GC 3053) (Staphylococcus sp.) | MIC Staphylococcus aureus (GC 4541) (Staphylococcus sp.) | MIC Staphylococcus aureus (GC 4542) (Staphylococcus sp.) | MIC Staphylococcus aureus-SMITH (GC 4543) (Staphylococcus sp.) | MIC Staphylococcus aureus (GC 4544) (Staphylococcus sp.) | MIC Staphylococcus aureus (GC 4545) (Staphylococcus sp.) | MIC Coagulase Negative Staphylococcus (GC 4547) (Staphylococcus sp.) | MIC Coagulase Negative Staphylococcus (GC 4551) (Staphylococcus sp.) | MIC Streptococcus pyogenes (GC 4563) (Streptococcus sp.; [14]) | MIC Streptococcus pyogenes (GC 4563) (Streptococcus sp.; [9])
2 mg/L: MIC Enterococcus avium (GC 4558) (Enterococcus sp.; Enterococcus avium (GC 4558)) | MIC Enterococcus faecalis (GC 2242) (Enterococcus sp.; [2]) | MIC Enterococcus faecalis (GC 2691) (Enterococcus sp.; [3]) | MIC Enterococcus faecalis (GC 4552) (Enterococcus sp.; [5]) | MIC Enterococcus faecalis (GC 4553) (Enterococcus sp.; [6]) | MIC Enterococcus faecalis (GC 4554) (Enterococcus sp.; [7]) | MIC Enterococcus faecium (GC 2243) (Enterococcus sp.; Enterococcus faecium (GC 2243)) | MIC Enterococcus faecium (GC 4557) (Enterococcus sp.; Enterococcus faecium (GC 4557)) | MIC Enterococcus avium (GC 4558) (Enterococcus sp.; [9]) | MIC Enterococcus faecalis (GC 2242) (Enterococcus sp.; [9]) | MIC Enterococcus faecalis (GC 2691) (Enterococcus sp.; [9]) | MIC Enterococcus faecalis (GC 4552) (Enterococcus sp.; [9]) | MIC Enterococcus faecalis (GC 4553) (Enterococcus sp.; [9]) | MIC Enterococcus faecalis (GC 4554) (Enterococcus sp.; [9]) | MIC Enterococcus faecium (GC 2243) (Enterococcus sp.; [9]) | MIC Enterococcus faecium (GC 4557) (Enterococcus sp.; [9])
32 mg/L: MIC Escherichia coli (ATCC 25922) (Escherichia coli) | MIC Escherichia coli (GC 4559) (Escherichia coli)

CC(c1ccccc1)C1NC(=O)CNC(=O)C(CO)NC(=O)C(C(O)C2CNC(=N)N2C2OC(CO)C(O)C(O)C2O)NC(=O)C(C(O)C2CNC(=N)N2)NC(=O)C(Cc2ccc(OC3OC(CO)C(OC4OC5COC6(CC(C)(C)CC(C)(C)C6)OC5C(O)C4O)C(O)C3O)cc2)NC1=O (stereo not drawn) [Example 207, Cyclo[glycyl-β-methylphenylalanyl-O-[4-O-[4,6-O-(3,3,5,5-tetramethylcyclohexylidene)hexopyranosyl]hexopyranosyl]tyrosyl-3-(2-iminoimidazolidin-4-yl)seryl-3-(3-hexopyranosyl-2-iminoimidazolidin-4-yl)serylseryl]]
1 mg/L: MIC Enterococcus avium (GC 4558) (Enterococcus sp.; Enterococcus avium (GC 4558)) | MIC Enterococcus avium (GC 4558) (Enterococcus sp.; [9]) | MIC Staphylococcus aureus (ATCC 29213) (Staphylococcus sp.) | MIC Staphylococcus aureus (GC 3053) (Staphylococcus sp.) | MIC Staphylococcus aureus (GC 4541) (Staphylococcus sp.) | MIC Staphylococcus aureus (GC 4542) (Staphylococcus sp.) | MIC Staphylococcus aureus-SMITH (GC 4543) (Staphylococcus sp.) | MIC Staphylococcus aureus (GC 4544) (Staphylococcus sp.) | MIC Staphylococcus aureus (GC 4545) (Staphylococcus sp.) | MIC Staphylococcus haemolyticus (GC 4546) (Staphylococcus sp.) | MIC Coagulase Negative Staphylococcus (GC 4547) (Staphylococcus sp.)
0.5 mg/L: MIC Coagulase Negative Staphylococcus (GC 4548) (Staphylococcus sp.) | MIC Coagulase Negative Staphylococcus (GC 4549) (Staphylococcus sp.)
4 mg/L: MIC Enterococcus faecalis (ATCC 29212) (Enterococcus sp.; [1]) | MIC Enterococcus faecalis (GC 2242) (Enterococcus sp.; [2]) | MIC Enterococcus faecalis (GC 4552) (Enterococcus sp.; [5]) | MIC Enterococcus faecalis (GC 4553) (Enterococcus sp.; [6]) | MIC Enterococcus faecalis (GC 4554) (Enterococcus sp.; [7]) | MIC Enterococcus faecium (GC 2243) (Enterococcus sp.; Enterococcus faecium (GC 2243)) | MIC Enterococcus faecium (GC 4556) (Enterococcus sp.; Enterococcus faecium (GC 4556)) | MIC Enterococcus faecalis (ATCC 29212) (Enterococcus sp.; [9]) | MIC Enterococcus faecalis (GC 2242) (Enterococcus sp.; [9]) | MIC Enterococcus faecalis (GC 4552) (Enterococcus sp.; [9]) | MIC Enterococcus faecalis (GC 4553) (Enterococcus sp.; [9]) | MIC Enterococcus faecalis (GC 4554) (Enterococcus sp.; [9]) | MIC Enterococcus faecium (GC 2243) (Enterococcus sp.; [9]) | MIC Enterococcus faecium (GC 4556) (Enterococcus sp.; [9]) | MIC Coagulase Negative Staphylococcus (GC 4551) (Staphylococcus sp.)
2 mg/L: MIC Enterococcus faecalis (GC 2691) (Enterococcus sp.; [3]) | MIC Enterococcus faecalis (GC 3059) (Enterococcus sp.; [4]) | MIC Enterococcus faecalis (GC 6189) (Enterococcus sp.; [8]) | MIC Enterococcus faecium (GC 4557) (Enterococcus sp.; Enterococcus faecium (GC 4557)) | MIC Enterococcus faecalis (GC 2691) (Enterococcus sp.; [9]) | MIC Enterococcus faecalis (GC 3059) (Enterococcus sp.; [9]) | MIC Enterococcus faecalis (GC 6189) (Enterococcus sp.; [9]) | MIC Enterococcus faecium (GC 4557) (Enterococcus sp.; [9]) | MIC Escherichia coli (GC 4560) (Escherichia coli) | MIC Staphylococcus aureus (GC 1131) (Staphylococcus sp.) | MIC Staphylococcus aureus (GC 3051) (Staphylococcus sp.)
<0.12 mg/L: MIC Streptococcus agalactiae (GC 4564) (Streptococcus sp.; [10]) | MIC Streptococcus pneumoniae (ATCC 6301) (Streptococcus sp.; [11]) | MIC Streptococcus pneumoniae (GC 1894) (Streptococcus sp.; [12]) | MIC Streptococcus pneumoniae (GC 4565) (Streptococcus sp.; [13]) | MIC Streptococcus pyogenes (GC 4563) (Streptococcus sp.; [14]) | MIC Streptococcus agalactiae (GC 4564) (Streptococcus sp.; [9]) | MIC Streptococcus pneumoniae (ATCC 6301) (Streptococcus sp.; [9]) | MIC Streptococcus pneumoniae (GC 1894) (Streptococcus sp.; [9]) | MIC Streptococcus pneumoniae (GC 4565) (Streptococcus sp.; [9]) | MIC Streptococcus pyogenes (GC 4563) (Streptococcus sp.; [9])
64 mg/L: MIC Escherichia coli (GC 4559) (Escherichia coli)
32 mg/L: MIC Escherichia coli (ATCC 25922) (Escherichia coli)

From patent US8247211B2, “Glycopeptide antibiotics” (American Cyanamid Company, priority 2001, dated 2012)
